According to patent publication US20220054494A1, “METHODS FOR TREATING BLADDER AND URETHRA DYSFUNCTION AND DISEASE” (University of Pittsburgh - Of the Commonwealth System of …, priority 2019, published 2022):
“Also recorded” adds a separate entry of the source.

Columns and labels:
[1] = tested on: urethral smooth muscle and external urethral sphincter (striated muscle); assay: Transmission electron microscopy of urethral smooth muscle and external urethral sphincter; format: in vivo, rat; conditions: aged rats; oral 8-AG 5 mg/kg/day, 6 weeks
Source text: Damage to the muscles or lack of hormonal stimulation are major contributing factors to urinary incontinence, which can lead to impaired bladder, emptying, urgency, and incontinence. The methods and materials used (such as for western immunoblotting and transmission electron microscopy) are the same as Example 1 with the tissues utilized for examination of muscle and mitochondrial morphology being the proximal urethral sphincter muscle and striated muscle of the external sphincter.
Transmission electron microscopy (TEM): The other half of each urinary bladder, proximal urethra, or external urethral sphincter from each group (young, aged, aged+8-AG treatment) was fixed in cold 2.5% glutaraldehyde in 0.01 M PBS. The specimens were rinsed in PBS, post-fixed in 1% osmium tetroxide with 1% potassium ferricyanide, rinsed in PBS, dehydrated through a graded series of ethanol and propylene oxide solutions, and embedded in POLY/BED® 812 (Luft formulations). Semi-thin (300 nm) sections were cut on a LEICA® Reichart Ultracut, stained with 0.5% Toluidine Blue in 1% sodium borate and examined under the light microscope. Ultrathin sections (65 nm) were stained with uranyl acetate as well as Reynold's lead citrate and examined on a JEOL 1400 transmission electron microscope with a side mount AMT 2k digital camera (Advanced Microscopy Techniques, Danvers, Mass.).

aged rats = assay: Voiding analysis in metabolic cages, aged rats; format: in vivo, rat
Experimental: Experimental design: Young (3 months of age) and aged (25 to 30 months of age) Fisher 344 rats were used in these experiments. Some of the aged Fisher 344 rats were treated with 8-AG (5 mg kg/day via drinking water) for 1 month.
Voiding analysis: Rats were placed in metabolic cages for 24 hr (once per week for the duration of the study). Voided urine was collected in cups attached to force displacement transducers (GRASS TECHNOLOGIES®, Warwick, R.I.) connected to a computer running WINDAQ™ data acquisition software (DATAQ™ Instruments Inc., Akron, Ohio). Data were averaged for 24 h, and voiding frequency, total voided volume, and volume per void were analyzed. Voiding frequency was calculated as the number of voiding events per hour during 24 h, and volume per void, which defines bladder capacity, was calculated as an average of the voids occurring during these periods.
Animals: Male and female Fisher 344 rats were employed (Charles River; Wilmington, Mass. and the NIA rodent colony). Some rats were young (3 months of age), some were aged (25-30 months of age), and others were aged and treated with oral 8-AG (5 mg/kg/day; 6 weeks). Under isoflurane anesthesia and using an aseptic technique, an incision was made into the lower abdomen and in the scapular area. Sterile PE50 tubing was threaded subcutaneously from the lower abdomen to the scapular area and connected to a one-channel vascular access button (Intech Laboratories, Plymouth Meeting, Pa.). In the abdomen, the tubing was inserted into the bladder and secured with a small purse-string suture. The incisions were closed, and the animals were allowed to recover for 7-10 days before further experimentation. Animals were divided into three groups. A control group of aged rats received daily infusions with 10 μM DEA-NONOate (SIGMA-ALDRICH®, St. Louis, Mo.) in sterile 0.9% saline. A second group received 100 μM 8-AG plus 10 μM DEA-NONOate in 0.9% saline, and a third group received 5 μM forodesine (SIGMA-ALDRICH®) plus 10 μM DEA-NONOate in 0.9% saline. Bladders were instilled via a catheter tether kit (Instech Laboratories) connected to a syringe pump for continuous infusion (rate 200 μl/min; 30 minutes/daily) for 3-6 weeks. The Institutional Animal Care and Use Committee approved all procedures. The investigation conforms to the Guide for the Care and Use of Laboratory Animals published by the US National Institutes of Health (NIH Publication No. 85-23, revised 1996).
Protocol 1: Young, aged, and 8-AG-treated aged rats were placed in metabolism cages for 24 hr once per week. The light cycle was from 7:00 AM to 7:00 PM, and food and water were provided ad libitum. Voided urine was collected in cups attached to force displacement transducers (GRASS TECHNOLOGIES®, Warwick, R.I.) that were connected to a computer running Windaq data acquisition software (DATAQ® Instruments I2nc., Akron, Ohio). Data were averaged for 24 h and analyzed for 12-h periods during the day (7:00 AM-7:00 PM) and night (7:00 PM-7:00 AM). Voiding frequency, total voided volume, and volume per void were analyzed. Voiding frequency was calculated as the number of voiding events per hour during 24 h and during the 12-h day and 12-h night periods. Volume per void, which defines bladder capacity, was calculated as an average of the voids occurring during these periods.
Voiding Analysis: Young, aged, and 8-AG-treated aged rats were placed in metabolic cages (24 hr; once per week) for the duration of the study. The light cycle was from 7:00 AM to 7:00 PM, and food and water were provided ad libitum. Voided urine was collected in cups attached to force displacement transducers (Grass Technologies, Warwick, R.I.) connected to a computer (Windaq data acquisition software DATAQ Instruments Inc., Akron, Ohio). Data were averaged for 24 h and analyzed for 12-h periods during the day (7:00 AM-7:00 PM) and night (7:00 PM-7:00 AM). Voiding frequency, total voided volume, and volume per void were analyzed. […]

[2] = aged Fischer 344 rats, oral 8-AG 5 mg/kg/day, 6 weeks
[3] = aged Fisher 344 rats, 8-AG 5 mg kg/day via drinking water, 1 month

Nc1nc2[nH]c(N)nc2c(=O)[nH]1 [8-AG, 8-Aminoguanine]
external urethral sphincter (striated muscle) and mitochondrial morphology [1]: restored to a younger state; also recorded: reversed to a younger state
urethral smooth muscle and mitochondrial morphology [1]: restored to a younger state; also recorded: reversed to a younger state
voided volume (aged rats; [2]): attenuates
voiding frequency (aged rats; [2]): attenuates
bladder abnormalities (voided volume, voiding efficiency, voiding frequency) (aged rats; [3]): reversed
voided volume (aged rats; [3]): attenuates
voiding frequency (aged rats; [3]): attenuates
voiding frequency (aged rats; aged rats, intravesical 100 μM 8-AG plus 10 μM DEA-NONOate, daily infusion 3-6 weeks, vs control aged rats): decreased; also recorded: attenuates
